# From patent US20250304537A1 (Repare Therapeutics Inc., priority 2022, published 2025)
# Target: recombinant human Myt1 (full length PKMYT1) (Homo sapiens (Human), UniProt Q99640)
# Assay: Recombinant human Myt1 kinase assay (ADP-Glo)
# Type: biochemical
# Settings: 10 μM ATP
# Procedure: Detection of Myt1 kinase activity utilized a recombinant human Myt1 kinase assay measuring the hydrolysis of ATP using a commercially available ADP-Glo Assay (ADP-Glo™ Kinase Assay from Promega, 10 000 assays, #V9102). Briefly, 5 μL recombinant human Myt1 (full length PKMYT1 recombinant human protein expressed in insect cells from Thermo Fisher #A33387; ˜80% purity) was prepared in reaction buffer (70 mM HEPES, 3 mM MgCl2, 3 mM MnCl2, 50 μg/ml PEG 20000, 3 μM Na-orthovanadate, 1.2 mM DTT) and added to 384 well white polystyrene, flat bottom well, non-treated, microplate (Corning #3572). After this, 5 μL of compounds (diluted in reaction buffer to 0.5% DMSO) was added to the microplate and the plate was spun briefly and incubated at 22° C. for 15 minutes. Ultra-Pure Adenosine Triphosphate (ATP) solution (ADP-Glo kit from Promega) was diluted in reaction buffer and 5 μL was added to the microplate, spun down briefly and incubated for 60 minutes at 30° C. The final Myt1 enzyme concentration was 18 nM and the final ATP concentration was 10 μM. After the 60-minute incubation, 15 μL of ADP-Glo reagent was added and the plate was spun briefly and sealed and incubated in the dark for 40 minutes at 22° C. Following this, 30 μL of kinase detection reagent was added per well and the plate was spun briefly, sealed and incubated for 45-60 minutes at 22° C. in the dark. Luminescence was read using the Envision (250 ms integration). The IC50 and the % max inhibition were calculated for each inhibitor compound tested.
# recombinant human Myt1 (full length PKMYT1), sequence (Q99640 whole entry): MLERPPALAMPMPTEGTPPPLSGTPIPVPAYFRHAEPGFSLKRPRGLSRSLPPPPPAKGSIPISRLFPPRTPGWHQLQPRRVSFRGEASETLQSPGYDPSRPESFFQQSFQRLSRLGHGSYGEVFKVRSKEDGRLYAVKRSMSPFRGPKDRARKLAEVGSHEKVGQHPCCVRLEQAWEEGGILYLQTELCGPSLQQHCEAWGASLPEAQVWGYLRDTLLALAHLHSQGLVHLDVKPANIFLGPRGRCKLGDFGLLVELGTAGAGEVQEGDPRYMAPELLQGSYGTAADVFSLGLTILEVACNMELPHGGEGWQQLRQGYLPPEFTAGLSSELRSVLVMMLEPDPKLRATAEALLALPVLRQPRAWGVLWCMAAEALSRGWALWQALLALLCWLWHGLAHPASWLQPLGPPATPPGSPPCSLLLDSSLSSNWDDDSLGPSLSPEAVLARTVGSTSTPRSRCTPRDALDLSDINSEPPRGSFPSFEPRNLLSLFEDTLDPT
row,SMILES,IC50 [nM]
1,"COCCOc1cccc(-c2cc(-c3c(C)ccc4[nH]ncc34)c(N)c(C(N)=O)n2)n1 (atropisomer, axis not shown) [Compound 270]",1160
2,Cc1ccc(O)c(C)c1-c1cc(-c2cc3ccccc3n2C)nc(C(N)=O)c1N [Compound 46],62
3,COCCCOc1ccc(-c2nc(C(N)=O)c(N)c(-c3c(C)ccc4[nH]ncc34)n2)cc1 [Compound 138],43
4,Cc1ccc2[nH]ncc2c1-c1nc(-c2cccc(C(C)(C)C#N)c2)nc(C(N)=O)c1N [Compound 126],27
5,Cc1ccc2[nH]ncc2c1-c1nc(-c2ccc(CN3CCOCC3)cc2)nc(C(N)=O)c1N [Compound 147],217
6,Cc1ccc2[nH]ncc2c1-c1cc(-c2cncs2)nc(C(N)=O)c1N [Compound 98],1940
7,Cc1ccc2[nH]ncc2c1-c1cc(-c2ccnc(OCc3cncn3C3CCCCC3)n2)nc(C(N)=O)c1N [Compound 328],18
8,"COc1cccc(-c2cccc(-c3cc(-c4c(C)ccc5[nH]ncc45)c(N)c(C(N)=O)n3)n2)c1 [Compound 340, 5-amino-6′-(3-methoxyphenyl)-4-(5-methyl-1H-indazol-4-yl)-[2,2′-bipyridine]-6-carboxamide]",> 2000
9,Cc1ccc2[nH]ncc2c1-c1cc(-c2cn(C)cn2)nc(C(N)=O)c1N [Compound 172],53
10,Cc1ccc2[nH]ncc2c1-c1cc(-c2cccc(OC(C)c3ccccn3)n2)nc(C(N)=O)c1N (stereo not drawn) [Compound 252],26
11,"Cc1ccc(O)cc1-c1c(N)c(C(N)=O)nc2ccccc12 [Compound 10, 3-amino-4-(5-hydroxy-2-methylphenyl)quinoline-2-carboxamide]",202
12,CNc1cccc(-c2nc(C(N)=O)c(N)c(-c3c(C)ccc4[nH]ncc34)n2)c1 [Compound 140],48
13,"Cc1c(-c2ccccn2)nc(C(N)=O)c(N)c1-c1cccc2[nH]ncc12 [Compound 246, 5-amino-4-(1H-indazol-4-yl)-3-methyl-[2,2′-bipyridine]-6-carboxamide]",720
14,COc1cnc(COc2cccc(-c3cc(-c4c(C)ccc5[nH]ncc45)c(N)c(C(N)=O)n3)n2)nc1 [Compound 255],72
15,Cc1ccc(O)cc1-c1nc(-c2ccc(N3CCOCC3)cc2)nc(C(N)=O)c1N [Compound 37],42
16,COc1cccc(-c2nc(C(N)=O)c(N)c(-c3c(C)ccc4[nH]ncc34)n2)c1 [Compound 141],23
17,Cc1ccc2[nH]ncc2c1-c1cc(-c2cccc(N3CCOCC3)n2)nc(C(N)=O)c1N [Compound 217],13

row,SMILES,IC50 [nM]
1,CNC(=O)c1cccc(-c2nc(C(N)=O)c(N)c(-c3c(C)ccc4[nH]ncc34)n2)c1 [Compound 285],20
2,Cc1ccc(O)cc1-c1nc(-c2cccc(F)n2)nc(C(N)=O)c1N [Compound 5],25
3,"CCC(Nc1cccc(-c2cc(-c3c(C)ccc4[nH]ncc34)c(N)c(C(N)=O)n2)n1)c1ccccc1 (stereo not drawn) [Compound 331, 5-amino-4-(5-methyl-1H-indazol-4-yl)-6′-((1-phenylpropyl)amino)-[2,2′-bipyridine]-6-carboxamide]",54
4,Cc1ccc2[nH]ncc2c1-c1nc(-c2ccc(N3CCOCC3)cc2)nc(C(N)=O)c1N [Compound 103],94
5,Cc1cc(-c2nc(C(N)=O)c(N)c(-c3cc(O)ccc3C)n2)cc(C)n1 [Compound 11],54
6,Cc1ccc2[nH]ncc2c1-c1cc(-c2cccc(OCc3nccc(N4CCOCC4)n3)n2)nc(C(N)=O)c1N [Compound 259],584
7,Cc1ccc2[nH]ncc2c1-c1nc(-c2ccc(C(=O)O)s2)nc(C(N)=O)c1N [Compound 162],198
8,Cc1ccc(O)cc1-c1nc(-c2ccn(C)c(=O)c2)nc(C(N)=O)c1N [Compound 36],92
9,Cc1ccc2[nH]ncc2c1-c1cc(-c2cccc(O[C@@H](C)c3ncccn3)n2)nc(C(N)=O)c1N [Compound 253],55
10,"NC(=O)c1nc(-c2cccnc2)cc(-c2c(C(F)F)ccc3[nH]ncc23)c1N [Compound 321, 5-amino-4-(5-(difluoromethyl)-1H-indazol-4-yl)-[2,3′-bipyridine]-6-carboxamide]",> 2000
11,Cc1cnc(-c2nc(C(N)=O)c(N)c(-c3cc(O)ccc3C)n2)s1 [Compound 9],44
12,Cc1ccc(O)c(C)c1-c1cc(-c2ccnnc2)cc(C(N)=O)c1N [Compound 149],735
13,Cc1ccc2[nH]ncc2c1-c1nc(-c2cccc(C=O)c2)nc(C(N)=O)c1N [Compound 304],27
14,Cc1ccc2[nH]ncc2c1-c1nc(-c2ccccc2N)nc(C(N)=O)c1N [Compound 319],48
15,"Cc1ccc2[nH]ncc2c1-c1cc(-c2ccnc(OCCc3ncccn3)n2)nc(C(N)=O)c1N (atropisomer, axis not shown) [Compound 330]",88
16,"Cc1ccc2[nH]ncc2c1-c1cc(Nc2ccccc2)nc(C(N)=O)c1N [Compound 335, 3-amino-4-(5-methyl-1H-indazol-4-yl)-6-(phenylamino)picolinamide]",195

# Second part, the compound after the results:
row,IC50 [nM],SMILES
1,24,Cc1ccc2[nH]ncc2c1-c1cc(-c2ccnc(N3CCCCC3CCO)n2)nc(C(N)=O)c1N (stereo not drawn) [Compound 404]
2,461,"Cc1ccc2[nH]ncc2c1-c1cc(-c2ccnc(N3Cc4ccccc4C[C@H]3CO)n2)nc(C(N)=O)c1N (atropisomer, axis not shown) [Compound 392]"
3,13,Cc1ccc2[nH]ncc2c1-c1cc(-c2ccnc(N3CCCC(CO)C3)n2)nc(C(N)=O)c1N (stereo not drawn) [Compound 346]
4,1020,"Cc1ccc2[nH]ncc2c1-c1cc(-c2cccc(OC[C@H](N)C(C)C)n2)nc(C(N)=O)c1N (atropisomer, axis not shown) [Compound 345]"
5,330,CCC(COc1cccc(-c2cc(-c3c(C)ccc4[nH]ncc34)c(N)c(C(N)=O)n2)c1)OC (stereo not drawn) [Compound 360]
6,> 2000,"Cc1ccc2[nH]ncc2c1-c1cc(-c2ccnc(N[C@H]3c4ccccc4C[C@@H]3O)n2)nc(C(N)=O)c1N (atropisomer, axis not shown) [Compound 372]"
7,9,Cc1ccc2[nH]ncc2c1-c1cc(-c2cccc(OC[C@H]3CCCO3)n2)nc(C(N)=O)c1N [Compound 356]
8,5,Cc1ccc2[nH]ncc2c1-c1nc(-c2cccc3nnsc23)nc(C(N)=O)c1N [Compound 390]
9,43,Cc1ccc2[nH]ncc2c1-c1nc(-c2cccc(Cl)c2N)nc(C(N)=O)c1N [Compound 444]
10,293,CO[C@@H](COc1cccc(-c2nc(C(N)=O)c(N)c(-c3c(C)ccc4[nH]ncc34)n2)c1)c1ccccc1 [Compound 354]
11,98,"Cc1ccc2[nH]ncc2c1-c1cc(-c2ccnc(NCC3(O)COC3)n2)nc(C(N)=O)c1N (atropisomer, axis not shown) [Compound 394]"
12,5,"Cc1ccc2[nH]ncc2c1-c1cc(-c2ccnc(O[C@@H](C)c3ncccn3)n2)nc(C(N)=O)c1N (atropisomer, axis not shown) [Compound 357]"
13,149,CO[C@@H](COc1cccc(-c2cc(-c3c(C)ccc4[nH]ncc34)c(N)c(C(N)=O)n2)c1)c1ccccc1 [Compound 351]
14,3,"Cc1ccc2[nH]ncc2c1-c1cc(-c2cccc(OCC3(N)CC3)n2)nc(C(N)=O)c1N (atropisomer, axis not shown) [Compound 382]"
15,14,CSC(C)COc1cccc(-c2cc(-c3c(C)ccc4[nH]ncc34)c(N)c(C(N)=O)n2)n1 (stereo not drawn) [Compound 375]
